The text below walks through data of patent US10308620B2, “Muscarinic M1 receptor positive allosteric modulators” (SUVEN LIFE SCIENCES LIMITED, priority 2015, dated 2019).

In data set [1] the target is recombinant human Muscarinic M1 receptor (Homo sapiens (Human), UniProt P11229). Kind of data set: Allosteric potency EC50, CHO cells with pCRE-Luc reporter, in presence of EC20 of acetylcholine. The note with it: 4 hours. The class given is cell-based. In a few lines: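 Stable CHO cells carrying human M1 receptor and a pCRE-Luc reporter, serum-starved overnight, then exposed to rising compound concentrations plus EC20 acetylcholine in OptiMEM for 4 h at 37 °C. Luciferase read after lysis. EC50 is the concentration giving 50% luciferase stimulation with EC20 acetylcholine present.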

In data set [2] the test system is soluble amyloid precursor protein α (sAPPα). Kind of data set: Cortical sAPPα levels in rat brain (ELISA). It counts as in vivo. As to conditions: male Wistar rats, 10 mg/kg, i.p., sixty minutes post treatment; FIG. 5. The procedure:
Modulation of Soluble Amyloid Precursor Protein α (sAPPα) Levels in Cortex
Estimation of Cortical sAPPα Levels in Rat Brain
Male Wistar rats (250±40 grams) were randomly divided (n=8 group) into different treatment groups. Control group of rats were intraperitoneally (i.p.) administered with vehicle (99.75% of 0.25% HEC HHX+0.25% tween 80). Rats from treatment groups received a single intraperitoneal injection of test compound (dose volume of 2 mL/kg). Rats were sacrificed by cervical dislocation at 60 minutes after administration of test compound. Brains were quickly isolated and the cortex was dissected at −20° C. The cortex was immediately kept on a dry ice and weighed before being stored at −80° C. until quantification of sAPPα using Enzyme-linked immunosorbent assay (ELISA).
• 1. […]
To investigate the role of an acute treatment of test compound on sAPPα levels, the expression of this protein was measured in homogenates obtained from the cortex of treated and untreated rats by employing ELISA assay. […]
Statistical analyses were performed using the Graph Pad Prism (Version 4). Results are expressed as Mean±SEM levels of sAPPα expressed as percentage of control values (rats treated with vehicle). Statistical significance after treatment was assessed using One-Way ANOVA followed by Dunnett's post test and the significance level was set below p value less than 0.05.

The next data set has as its system Male Wistar rats. Kind of data set: Object recognition task model (time induced memory deficit). It counts as in vivo, rat. The procedure:
Object Recognition Task Model
The cognition enhancing properties of compounds of this invention were estimated by using this model.
Male Wistar rats (8-10 weeks old) were used as experimental animals. Four animals were housed in each cage. Animals were kept on 20% food deprivation from a day prior to experimentation. Water was provided ad libitum throughout the experiment. Animals were maintained on a 12 hours light/dark cycle in temperature and humidity controlled room. The experiment was carried out in an open field made up of acrylic. Rats were habituated to individual arenas (open field) for 1 hour in the absence of any objects on day 1.
One group of 12 rats received vehicle and another set of animals received test compounds or test compounds and Donepezil, before the familiar (T1) and choice (T2) trials. During the familiarization phase, (T1), the rats were placed individually in the arena for 3 minutes, in which two identical objects (a1 and a2) were positioned 10 cm from the wall. 24 hours after T1, trial for long-term memory test was performed. The same rats were placed in the same arena as they were placed in T1 trial. During the choice phase (T2) rats were allowed to explore the arena for 3 minutes in presence of a copy of familiar object (a3) and one novel object (b). During the T1 and T2 trial, explorations of each object (defined as sniffing, licking, chewing or having moving vibrissae whilst directing the nose towards the object at a distance of less than 1 cm) were recorded using stopwatch.
T1 is the total time spent exploring the familiar objects (a1+a2).
T2 is the total time spent exploring the familiar object and novel object (a3+b). Discriminative index=Time spent with novel object/(time spent with novel and familiar object).
The object recognition test was performed as described in Behavioural Brain Research, 1988, 31, 47-59.

The nature of data set [3]: Rodent brain penetration study. The class given is in vivo. As to conditions: rat, oral, 3 mg/kg, p.o., male Wistar rats, read-out: Single dose Rat Brain Penetration (Cb/Cp). The procedure:
Rodent Brain Penetration Study
Male Wistar rats (260±40 grams) were used as experimental animals. Three animals were housed in each cage. Animals were given water and food ad libitum throughout the experiment and maintained on a 12 hours light/dark cycle.
Brain penetration was determined in discrete manner in rats. One day prior to dosing day, male Wistar rats were acclimatized and randomly grouped according to their weight. At each time point (0.50, 1 and 2 hours) n=3 animals were used.
The test compounds were suitably preformulated and administered orally at (free base equivalent) 3 mg/kg. Blood samples were removed via cardiac puncture by using isoflurane anesthesia. The animals were sacrificed to collect brain tissue. Plasma was separated and brain samples were homogenized and stored frozen at −20° C. until analysis. The concentrations of the test compounds in plasma and brain were determined using LC-MS/MS method.
The test compounds were quantified in plasma and brain homogenate by qualified LC-MS/MS method using suitable extraction technique. The test compounds were quantified in the calibration range of 1-500 ng/mL in plasma and brain homogenate. Study samples were analyzed using calibration samples in the batch and quality control samples spread across the batch. Extent of brain-plasma ratio was calculated (Cb/Cp).

[4] abbreviates: 1 mg/kg, p.o., choice trial 24 hours after T1.

Chain of recombinant human Muscarinic M1 receptor (P11229 whole entry): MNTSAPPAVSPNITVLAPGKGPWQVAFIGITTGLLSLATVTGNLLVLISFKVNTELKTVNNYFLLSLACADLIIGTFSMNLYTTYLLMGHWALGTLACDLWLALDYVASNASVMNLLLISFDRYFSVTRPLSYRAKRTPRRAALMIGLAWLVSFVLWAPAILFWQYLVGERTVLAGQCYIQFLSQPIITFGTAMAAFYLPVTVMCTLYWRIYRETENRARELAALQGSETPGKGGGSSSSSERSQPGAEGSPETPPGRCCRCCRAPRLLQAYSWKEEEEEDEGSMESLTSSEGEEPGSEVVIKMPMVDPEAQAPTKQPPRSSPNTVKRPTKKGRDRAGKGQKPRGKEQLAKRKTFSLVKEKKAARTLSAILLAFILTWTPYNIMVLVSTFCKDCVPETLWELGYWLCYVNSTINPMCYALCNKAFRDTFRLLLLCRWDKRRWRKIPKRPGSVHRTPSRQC

For the compound `O=C(N[C@H]1CCCC[C@@H]1O)C1=CN(Cc2cccc(F)c2F)c2ccccc2O1` [Example 18, N-(cis-1S, 2S-2-Hydroxycyclohexyl)-4-(2,3-difluorobenzyl)-4H-benzo[1,4]oxazine-2-carboxamide], in data set [1], the EC50 stood at 331 nM. Further, in data set [2], the “mean maximum increase in cortical sAPPα levels” value came to 26%. Also, the Inference entry in the data set with Male Wistar rats (1 mg/kg, p.o.) is on record as “Active”. Further, in the data set on Male Wistar rats (setting [4]), the “Exploration time mean ± S.E.M, Familiar object” value stood at 8.74 ± 1.49 s and the “Exploration time mean ± S.E.M, Novel object” value was 16.47 ± 1.82 s. The Procognitive effects entry in the data set with Male Wistar rats (in combination with donepezil, FIGS. 1 and 2) is “better than the either treatment”. Further, the Kp in data set [3] was determined as 2.27 ± 0.64.
